The values that follow come from patent US20090111823A1, “AMINOPYRIDINE DERIVATIVES AS MODULATORS OF MGLUR5” (AstraZeneca AB, priority 2007, published 2009).

A short description of series [1]: Determination of brain to plasma ratio in rat. Format: in vivo. The following applies: female Sprague Dawley rats, read-out: Brain/Plasma Ratio of compound in Rat. How it is done: Brain to plasma ratios are estimated in female Sprague Dawley rats. The compound is dissolved in water or another appropriate vehicle. For determination of brain to plasma ratio the compound is administrated as a subcutaneous, or an intravenous bolus injection, or an intravenous infusion, or an oral administration. At a predetermined time point after the administration a blood sample is taken with cardiac puncture. The rat is terminated by cutting the heart open, and the brain is immediately retained. The blood samples are collected in heparinized tubes and centrifuged within 30 minutes, in order to separate the plasma from the blood cells. The plasma is transferred to 96-well plates and stored at −20° C. until analysis. The brains are divided in half, and each half is placed in a pre-tarred tube and stored at −20° C. until analysis. Prior to the analysis, the brain samples are thawed and 3 mL/g brain tissue of distilled water is added to the tubes. The brain samples are sonicated in an ice bath until the samples are homogenized. Both brain and plasma samples are precipitated with acetonitrile. After centrifugation, the supernatant is diluted with 0.2% formic acid. Analysis is performed on a short reversed-phase HPLC column with rapid gradient elution and MSMS detection using a triple quadrupole instrument with electrospray ionisation and Selected Reaction Monitoring (SRM) acquisition. Liquid-liquid extraction may be used as an alternative sample clean-tip. The samples are extracted, by shaking, to an organic solvent after addition of a suitable buffer. An aliquot of the organic layer is transferred to a new vial and evaporated to dryness under a stream of nitrogen. After reconstitution of the residuals the samples are ready for injection onto the HPLC column.

In a further series the target is T1, human mGluR5d (Homo sapiens, UniProt P41594).
T1 construct: expressed in transfected cells; The separate IP3 assay uses GHEK cells stably expressing human mGluR5d
Description: FLIPR assay, mobilization of intracellular calcium in cells expressing human mGluR5d. Type of series: cell-based. The following applies: antagonism, read-out: FLIPR hmGluR5d. From the text: Functional Assessment of mGluR5 Antagonism in Cell Lines Expressing mGluR 5D
The properties of the compounds of the invention can be analyzed using standard assays for pharmacological activity. Examples of glutamate receptor assays are well known in the art as described in for example Aramori et al, Neuron 8:757 (1992), Tanabe et al., Neuron 8:169 (1992), Miller et al., J. Neuroscience 15: 6103 (1995), Balazs, et al., J. Neurochemistry 69:151 (1997). The methodology described in these publications is incorporated herein by reference. Conveniently, the compounds of the invention can be studied by means of an assay (FLIPR) that measures the mobilization of intracellular calcium, [Ca^2+]i in cells expressing mGluR5 or another assay (IP3) that measures inositol phosphate turnover.
Cells expressing human mGluR5d as described in WO97/05252 cultured in a mixture of high glucose DMEM with Glutamax (31966-021)(500 mL), 10% dialyzed fetal bovine serum (Hyclone #SH30079.03)(56 mL), 200 μg/mL Hygromycin B (Invitrogen 45-0430, 50 mg/mL)(2.2 mL), 200 μg/mL Zeocin (invitrogen #R250-01; 100 mg/mL)(1.1 mL) are seeded at a density of 100,000 cells per well on collagen coated clear bottom 96-well plates with black sides and cells were allowed to adhere over night before experiments. All assays are done in a buffer containing 146 mM NaCl, 5 mM KCl, 1 mM MgCl2, 1 mM CaCl2, 20 mM HEPES, 1 mg/mL glucose and 1 mg/mL BSA Fraction IV (pH 7.4). Cell cultures in the 96-well plates are loaded for 60 minutes in the above mentioned buffer containing 6 μM of the acetoxymethyl ester form of the fluorescent calcium indicator fluo-3 (Molecular Probes, Eugene, Oreg.) in 0.025% pluronic acid (a proprietary, non-ionic surfactant polyol—CAS Number 9003-11-6). […] The fluorescence signal is sampled 50 times at 1-second intervals followed by 3 samples at 5-second intervals immediately after each of the two additions. Responses are measured as the difference between the peak heights of the response to agonist, less the background fluorescence within the sample period. […]

Where only a bound is given, the exact number is not on record here.

T1 sequence (P41594 21-942 isoform P41594-3 limits assumed): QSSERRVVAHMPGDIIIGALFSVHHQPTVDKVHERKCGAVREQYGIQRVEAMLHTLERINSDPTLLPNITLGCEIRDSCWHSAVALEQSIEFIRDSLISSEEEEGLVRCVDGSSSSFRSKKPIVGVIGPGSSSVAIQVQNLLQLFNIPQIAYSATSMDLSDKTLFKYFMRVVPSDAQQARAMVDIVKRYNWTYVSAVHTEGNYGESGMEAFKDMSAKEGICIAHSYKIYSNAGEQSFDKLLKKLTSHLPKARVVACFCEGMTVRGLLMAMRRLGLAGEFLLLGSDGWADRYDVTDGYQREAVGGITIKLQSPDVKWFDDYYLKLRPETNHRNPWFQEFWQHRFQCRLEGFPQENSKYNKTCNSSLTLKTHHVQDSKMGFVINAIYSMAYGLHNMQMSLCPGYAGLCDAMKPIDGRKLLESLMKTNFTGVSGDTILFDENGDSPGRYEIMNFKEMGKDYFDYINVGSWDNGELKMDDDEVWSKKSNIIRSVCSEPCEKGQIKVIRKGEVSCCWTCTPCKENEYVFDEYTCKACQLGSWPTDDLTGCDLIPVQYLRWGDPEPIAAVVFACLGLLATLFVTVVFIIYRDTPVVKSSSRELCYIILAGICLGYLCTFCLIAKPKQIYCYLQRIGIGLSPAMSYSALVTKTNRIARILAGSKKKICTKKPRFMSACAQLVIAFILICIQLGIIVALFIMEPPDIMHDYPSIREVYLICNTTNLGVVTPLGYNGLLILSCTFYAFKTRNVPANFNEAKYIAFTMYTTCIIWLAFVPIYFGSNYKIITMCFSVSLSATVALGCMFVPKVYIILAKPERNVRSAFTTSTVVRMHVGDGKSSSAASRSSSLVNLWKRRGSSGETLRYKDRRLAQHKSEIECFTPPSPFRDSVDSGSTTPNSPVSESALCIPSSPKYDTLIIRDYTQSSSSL

Consider `CN(C)c1ccc(-c2nnc(N3CCC[C@@H]3c3cc(-c4cccc(Cl)c4)on3)n2C)cn1` [Example 5.1, 5-(5-{(2R)-2-[5-(3-Chlorophenyl)isoxazol-3-yl]pyrrolidin-1-yl}-4-methyl-4H-1,2,4-triazol-3-yl)-N,N-dimethylpyridin-2-amine], for which the Kp in series [1] turned out to be 0.285. For the same molecule, the IC50 on human mGluR5d is 39 nM.
For `Cn1c(-c2ccc(N)nc2)nnc1N1CCCC1c1cc(-c2ccccc2)on1` (stereo in doubt) [Example 5.3, 5-{4-Methyl-5-[(2R)-2-(5-phenylisoxazole-3-yl)pyrrolidin-1-yl]-4H-1,2,4-triazol-3-yl}pyridin-2-amine], in that order: less than 0.01 and 34 nM.
The corresponding values for `Cn1c(-c2ccc(N)nc2)nnc1N1CCC[C@@H]1c1cc(-c2cccc(Cl)c2)on1` [Example 5.2, 5-(5-{(2R)-2-[5-(3-Chlorophenyl)isoxazol-3-yl]pyrrolidin-1-yl}-4-methyl-4H-1,2,4-triazol-3-yl)pyridin-2-amine] are 0.085 and less than 3 nM.
